The source of these data is patent US12679843B2, “Pyrrolopyrimidine amines as complement inhibitors” (BioCryst Pharmaceuticals, Inc., priority 2020, dated 2026).

The structures appear in SMILES notation.

Sequence of Factor D (P00746 26-253): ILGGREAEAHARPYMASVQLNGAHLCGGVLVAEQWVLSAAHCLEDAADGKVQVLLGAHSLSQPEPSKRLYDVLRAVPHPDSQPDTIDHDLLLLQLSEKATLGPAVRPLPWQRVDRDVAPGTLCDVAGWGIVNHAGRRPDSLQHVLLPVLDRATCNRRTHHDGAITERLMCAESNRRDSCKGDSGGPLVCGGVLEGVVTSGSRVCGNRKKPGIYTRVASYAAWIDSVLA

This experiment deals with Factor D (Homo sapiens, UniProt P00746). The experiment can be described thus: Factor D esterolytic assay (Z-Lys-SBzl thioester substrate, DTNB, 405 nm). In kind it is biochemical. The settings on record: substrate Z-Lys-SBzl 1.29 mM, 100 mM HEPES, 500 mM NaCl, pH 7.5, 10% DMSO, tested a minimum of three times. An outline of the steps:
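Human Factor D hydrolysis of Z-Lys-SBzl (1.29 mM) monitored at 405 nm via DTNB thiol detection for 600 s, 690 nm background subtracted. Buffer 100 mM HEPES, 500 mM NaCl, pH 7.5, 10% DMSO; substrate added immediately or after room-temperature preincubation. IC50 from percent inhibition of rate, at least three tests.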
As usually defined, the IC50 is the point on the concentration scale where inhibition reaches its midpoint. For the compound `Nc1ncnc2c1c1cccc(C(=O)O)c1n2CC(=O)N1[C@@H]2C[C@@H]2C[C@H]1C(=O)Nc1cccc(Br)n1` [Compound 220a, 4-amino-9-(2-((1R,3S,5R)-3-((6-bromopyridin-2-yl)carbamoyl)-2-azabicyclo[3.1.0]hexan-2-yl)-2-oxoethyl)-9H-pyrimido[4,5-b]indole-8-carboxylic acid], the IC50 lay in the range of 100 to 1000 nM. As to `Cc1nc(C(F)(F)F)cc2c3c(N)ncnc3n(CC(=O)N3[C@@H]4C[C@@H]4C[C@H]3C(=O)Nc3cccc(Br)n3)c12` [Compound 346g, (1R,3S,5R)-2-(2-(4-amino-8-methyl-6-(trifluoromethyl)-9H-pyrido[4′,3′:4,5]pyrrolo[2,3-d]pyrimidin-9-yl)acetyl)-N-(6-bromopyridin-2-yl)-2-azabicyclo[3.1.0]hexane-3-carboxamide], the 50% inhibitory concentration (IC50) was < 100 nM. As for `N#C[C@H]1C[C@@H](C(=O)Nc2cccc(Br)n2)N(C(=O)Cn2c3ccc(C(F)(F)F)cc3c3c(N)ncnc32)C1` [Compound 177d, (2S,4S)-1-(2-(4-amino-6-(trifluoromethyl)-9H-pyrimido[4,5-b]indol-9-yl)acetyl)-N-(6-bromopyridin-2-yl)-4-cyanopyrrolidine-2-carboxamide], the IC50 lay within 100 to 1000 nM. On to `Cc1cc(-c2ccncc2)cc2c3c(N)ncnc3n(CC(=O)N3[C@@H]4C[C@@H]4C[C@H]3C(=O)Nc3cccc(Br)n3)c12` [Compound 263c, (1R,3S,5R)-2-(2-(4-amino-8-methyl-6-(pyridin-4-yl)-9H-pyrimido[4,5-b]indol-9-yl)acetyl)-N-(6-bromopyridin-2-yl)-2-azabicyclo[3.1.0]hexane-3-carboxamide], for which the IC50 is < 100 nM. For `COc1cccc2c1c1c(N)ncnc1n2CC(=O)N1[C@@H]2C[C@@H]2C[C@H]1C(=O)Nc1cccc(Br)n1` [Compound 57g, (1R,3S,5R)-2-(2-(4-amino-5-methoxy-9H-pyrimido[4,5-b]indol-9-yl)acetyl)-N-(6-bromopyridin-2-yl)-2-azabicyclo[3.1.0]hexane-3-carboxamide] the value was < 100 nM; for `Cc1cccc(-c2ccc3c(c2)c2c(N)ncnc2n3CC(=O)N2[C@@H]3C[C@@H]3C[C@H]2C(=O)Nc2cccc(Br)n2)c1` [Compound 271c, (1R,3S,5R)-2-(2-(4-amino-6-(m-tolyl)-9H-pyrimido[4,5-b]indol-9-yl)acetyl)-N-(6-bromopyridin-2-yl)-2-azabicyclo[3.1.0]hexane-3-carboxamide], < 100 nM. For `CCOC(=O)CCc1ccc2c(c1)c1c(N)ncnc1n2CC(=O)N1[C@@H]2C[C@@H]2C[C@H]1C(=O)Nc1cccc(Br)n1` [Compound 45d, ethyl 3-(4-amino-9-(2-((1R,3S,5R)-3-((6-bromopyridin-2-yl)carbamoyl)-2-azabicyclo[3.1.0]hexan-2-yl)-2-oxoethyl)-9H-pyrimido[4,5-b]indol-6-yl)propanoate] the value was < 100 nM. Consider `CC(C)(C)OC(=O)Nc1ccc2c(c1)c1c(N)ncnc1n2CC(=O)N1[C@@H]2C[C@@H]2C[C@H]1C(=O)Nc1cccc(Br)n1` [Compound 48d, tert-butyl (4-amino-9-(2-((1R,3S,5R)-3-((6-bromopyridin-2-yl)carbamoyl)-2-azabicyclo[3.1.0]hexan-2-yl)-2-oxoethyl)-9H-pyrimido[4,5-b]indol-6-yl)carbamate], for which the IC50 is < 100 nM.

On to `O=C(NCc1cccc(Cl)c1F)[C@@H]1C[C@@H](F)CN1C(=O)Cn1ccc2c3[nH]c(=O)[nH]c(=O)c3cnc21` [Compound 145a, (2S,4R)—N-(3-chloro-2-fluorobenzyl)-1-(2-(2,4dioxo-3,4dihydro-1H-pyrrolo[3′,2′:5,6]pyrido[4,3-d]pyrimidin-7 (2H)-yl)acetyl)-4-fluoropyrrolidine-2-carboxamide], for which the IC50 was in the range of 100 to 1000 nM. `Nc1ncnc2c1c1nc(-c3cccnc3)ccc1n2CC(=O)N1[C@@H]2C[C@@H]2C[C@H]1C(=O)Nc1cccc(Br)n1` [Compound 371c, (1R,3S,5R)-2-(2-(4-amino-6-(pyridin-3-yl)-9H-pyrido[2′,3′:4,5]pyrrolo[2,3-d]pyrimidin-9-yl)acetyl)-N-(6-bromopyridin-2-yl)-2-azabicyclo[3.1.0]hexane-3-carboxamide]: the IC50 was 100 to 1000 nM. For `CN(C)c1ccc2c(c1)c1c(N)ncnc1n2CC(=O)N1[C@H](C(=O)Nc2cccc(Br)n2)C[C@@]2(C)C[C@@H]12` [Compound 215g, (1R,3S,5R)-2-(2-(4-amino-6-(dimethylamino)-9H-pyrimido[4,5-b]indol-9-yl)acetyl)-N-(6-bromopyridin-2-yl)-5-methyl-2-azabicyclo[3.1.0]hexane-3-carboxamide] the value was < 100 nM. `CC1(C)C[C@@H](C(=O)Nc2cccc(Br)n2)N(C(=O)Cn2c3ccc(C(F)(F)F)cc3c3c(N)ncnc32)C1` [Compound 210d, (S)-1-(2-(4-amino-6-(trifluoromethyl)-9H-pyrimido[4,5-b]indol-9-yl)acetyl)-N-(6-bromopyridin-2-yl)-4,4-dimethylpyrrolidine-2-carboxamide]: the IC50 is 100 to 1000 nM.

Turning to `Cc1cc(-c2ccncc2)cc2c3c(N)ncnc3n(CC(=O)N3[C@H](C(=O)Nc4cccc(Br)n4)C[C@@]4(C)C[C@@H]34)c12` [Compound 264a, (1R,3S,5R)-2-(2-(4-amino-8-methyl-6-(pyridin-4-yl)-9H-pyrimido[4,5-b]indol-9-yl)acetyl)-N-(6-bromopyridin-2-yl)-5-methyl-2-azabicyclo[3.1.0]hexane-3-carboxamide], the 50% inhibitory concentration (IC50) is < 100 nM. For `Cc1nc(C(F)(F)F)cc2c3c(N)ncnc3n(CC(=O)N3[C@H](C(=O)Nc4cncc(Br)n4)C[C@@]4(C)C[C@@H]34)c12` [Compound 350a, (1R,3S,5R)-2-(2-(4-amino-8-methyl-6-(trifluoromethyl)-9H-pyrido[4′,3′:4,5]pyrrolo[2,3-d]pyrimidin-9-yl)acetyl)-N-(6-bromopyrazin-2-yl)-5-methyl-2-azabicyclo[3.1.0]hexane-3-carboxamide] the value was < 100 nM. For `Cc1cc(-c2ccccc2)cc2c3c(N)ncnc3n(CC(=O)N3[C@@H]4C[C@@H]4C[C@H]3C(=O)Nc3cccc(Br)n3)c12` [Compound 229c, (1R,3S,5R)-2-(2-(4-amino-8-methyl-6-phenyl-9H-pyrimido[4,5-b]indol-9-yl)acetyl)-N-(6-bromopyridin-2-yl)-2-azabicyclo[3.1.0]hexane-3-carboxamide] the value was < 100 nM; for `Cc1ccc2c(n1)c1c(N)ncnc1n2CC(=O)N1[C@@H]2C[C@@H]2C[C@H]1C(=O)Nc1cccc(Br)n1` [Compound 285g, (1R,3S,5R)-2-(2-(4-amino-6-methyl-9H-pyrido[2′,3′:4,5]pyrrolo[2,3-d]pyrimidin-9-yl)acetyl)-N-(6-bromopyridin-2-yl)-2-azabicyclo[3.1.0]hexane-3-carboxamide], < 100 nM; for `COC(=O)c1cccc2c3c(N)ncnc3n(CC(=O)N3[C@H](C(=O)Nc4cccc(Br)n4)C[C@@]4(C)C[C@@H]34)c12` [Compound 223a, methyl 4-amino-9-(2-((1R,3S,5R)-3-((6-bromopyridin-2-yl)carbamoyl)-5-methyl-2-azabicyclo[3.1.0]hexan-2-yl)-2-oxoethyl)-9H-pyrimido[4,5-b]indole-8-carboxylate], < 100 nM.
